Source: paper PMC4303209, “A novel phosphatidylinositol 3-kinase (PI3K) inhibitor directs a potent FOXO-dependent, p53-independent cell cycle arrest phenotype characterized by the differential induction of a subset of FOXO-regulated genes” (Breast Cancer Research : BCR, 2014)

Test system: MCF-7 breast cancer cells
Assay: Microarray gene expression analysis (Agilent whole human genome 4 x 44K; compound vs DMSO, LIMMA log2 fold change)
Format: cell-based
Details: Apoptosis genes

## Oc1cccc(-c2nc(N3CCOCC3)c3oc4ncccc4c3n2)c1 [PI-103]
Gene 6899
  TBX1 log2FC: 0.079
Gene 6910
  TBX5 log2FC: 0.103
Gene 6926
  TBX3 log2FC: -0.691
Gene 6934
  TCF7L2 log2FC: 0.036
Gene 6997
  TDGF1 log2FC: 0.005
Gene 7001
  PRDX2 log2FC: 0.385
Gene 7013
  TERF1 log2FC: 0.376
Gene 7015
  TERT log2FC: -0.048
Gene 7020
  TFAP2A log2FC: -0.507
Gene 7021
  TFAP2B log2FC: -0.150
Gene 7023
  TFAP4 log2FC: 0.386
Gene 7039
  TGFA log2FC: -0.533
Gene 7040
  TGFB1 log2FC: -0.436
Gene 7043
  TGFB3 log2FC: 0.355
Gene 7046
  TGFBR1 log2FC: 0.121
Gene 7048
  TGFBR2 log2FC: 0.950
Gene 7052
  TGM2 log2FC: -0.690
Gene 7057
  THBS1 log2FC: -0.908
Gene 7067
  THRA log2FC: 0.660
Gene 7072
  TIA1 log2FC: 0.065
Gene 7073
  TIAL1 log2FC: 0.160
Gene 7074
  TIAM1 log2FC: -0.173
Gene 7076
  TIMP1 log2FC: -0.137
Gene 7082
  TJP1 log2FC: 0.317
Gene 7088
  TLE1 log2FC: 0.501
Gene 7097
  TLR2 log2FC: -0.157
Gene 7098
  TLR3 log2FC: 0.801
Gene 7101
  NR2E1 log2FC: -0.112
Gene 7110
  TMF1 log2FC: 0.594
Gene 7124
  TNF log2FC: -1.866
Gene 7126
  TNFAIP1 log2FC: -0.271
Gene 7128
  TNFAIP3 log2FC: -0.853
Gene 7132
  TNFRSF1A log2FC: -0.921
Gene 7153
  TOP2A log2FC: 0.914
Gene 7157
  TP53 log2FC: 0.057
Gene 7159
  TP53BP2 log2FC: 0.347
Gene 7161
  TP73 log2FC: -0.255
Gene 7164
  TPD52L1 log2FC: 0.154
Gene 7178
  TPT1 log2FC: 0.376
Gene 7184
  HSP90B1 log2FC: 0.295
Gene 7185
  TRAF1 log2FC: -0.626
Gene 7187
  TRAF3 log2FC: -0.946
Gene 7188
  TRAF5 log2FC: 0.350
Gene 7189
  TRAF6 log2FC: -0.154
Gene 7204
  TRIO log2FC: 0.335
Gene 7227
  TRPS1 log2FC: 0.634
Gene 7262
  PHLDA2 log2FC: -3.120
Gene 7291
  TWIST1 log2FC: 0.425
Gene 7293
  TNFRSF4 log2FC: 0.091
Gene 7301
  TYRO3 log2FC: 0.021
Gene 7311
  UBA52 log2FC: 0.306
Gene 7314
  UBB log2FC: 0.036
Gene 7316
  UBC log2FC: 0.333
Gene 7320
  UBE2B log2FC: 0.652
Gene 7323
  UBE2D3 log2FC: -0.368
Gene 7349
  UCN log2FC: 0.293
Gene 7351
  UCP2 log2FC: 0.166
Gene 7374
  UNG log2FC: -0.352
Gene 7409
  VAV1 log2FC: 0.641
Gene 7410
  VAV2 log2FC: 0.038
Gene 7415
  VCP log2FC: -0.262
Gene 7416
  VDAC1 log2FC: -0.421
Gene 7421
  VDR log2FC: -1.024
Gene 7423
  VEGFB log2FC: 0.125
Gene 7428
  VHL log2FC: -0.079
Gene 7466
  WFS1 log2FC: -0.599
Gene 7474
  WNT5A log2FC: 0.134
Gene 7476
  WNT7A log2FC: -0.086
Gene 7477
  WNT7B log2FC: -0.378
Gene 7480
  WNT10B log2FC: -0.488
Gene 7481
  WNT11 log2FC: -0.088
Gene 7483
  WNT9A log2FC: 0.041
Gene 7486
  WRN log2FC: 0.379
Gene 7490
  WT1 log2FC: -0.652
Gene 7498
  XDH log2FC: 0.004
Gene 7507
  XPA log2FC: 0.468
Gene 7516
  XRCC2 log2FC: -0.599
Gene 7518
  XRCC4 log2FC: 0.561
Gene 7529
  YWHAB log2FC: 0.178
Gene 7531
  YWHAE log2FC: 0.050
Gene 7532
  YWHAG log2FC: -0.883
Gene 7533
  YWHAH log2FC: -0.481
Gene 7534
  YWHAZ log2FC: -0.301
Gene 7564
  ZNF16 log2FC: 0.344
Gene 7703
  PCGF2 log2FC: -0.113
Gene 7818
  DAP3 log2FC: 0.276
Gene 7832
  BTG2 log2FC: -1.051
Gene 7849
  PAX8 log2FC: 0.485
Gene 7855
  FZD5 log2FC: -0.196
Gene 7857
  SCG2 log2FC: 0.168
Gene 8013
  NR4A3 log2FC: 0.337
Gene 8022
  LHX3 log2FC: 0.039
Gene 8045
  RASSF7 log2FC: 0.194
Gene 8061
  FOSL1 log2FC: -2.531
Gene 8065
  CUL5 log2FC: -0.235
Gene 8087
  FXR1 log2FC: 0.653
Gene 8091
  HMGA2 log2FC: -1.508
Gene 8200
  GDF5 log2FC: -0.438
Gene 8241
  RBM10 log2FC: -0.115
Gene 8312
  AXIN1 log2FC: 0.422
Gene 8382
  NME5 log2FC: 0.271
Gene 8398
  PLA2G6 log2FC: -0.123
Gene 8406
  SRPX log2FC: 0.201
Gene 8428
  STK24 log2FC: -0.049
Gene 8439
  NSMAF log2FC: 0.165
Gene 8445
  DYRK2 log2FC: -0.467
Gene 8451
  CUL4A log2FC: 0.376
Gene 8452
  CUL3 log2FC: 0.00335
Gene 8453
  CUL2 log2FC: 0.251
Gene 8454
  CUL1 log2FC: 0.207
Gene 8462
  KLF11 log2FC: 1.202
Gene 8473
  OGT log2FC: 0.352
Gene 8517
  IKBKG log2FC: -0.216
Gene 8535
  CBX4 log2FC: -0.090
Gene 8539
  API5 log2FC: -0.497
Gene 8565
  YARS log2FC: -0.500
Gene 8567
  MADD log2FC: 0.749
Gene 8633
  UNC5C log2FC: 0.011
Gene 8644
  AKR1C3 log2FC: 0.528
Gene 8648
  NCOA1 log2FC: 0.476
Gene 8655
  DYNLL1 log2FC: -1.055
Gene 8660
  IRS2 log2FC: 0.876
Gene 8678
  BECN1 log2FC: 0.354
Gene 8682
  PEA15 log2FC: 0.569
Gene 8692
  HYAL2 log2FC: -0.333
Gene 8717
  TRADD log2FC: 0.506
Gene 8718
  TNFRSF25 log2FC: -0.549
Gene 8737
  RIPK1 log2FC: -0.336
Gene 8738
  CRADD log2FC: -0.080
Gene 8739
  HRK log2FC: 0.399
Gene 8767
  RIPK2 log2FC: 0.379
Gene 8771
  TNFRSF6B log2FC: -1.304
Gene 8772
  FADD log2FC: -0.617
Gene 8784
  TNFRSF18 log2FC: -0.038
Gene 8793
  TNFRSF10D log2FC: -0.508
Gene 8795
  TNFRSF10B log2FC: -0.908
Gene 8797
  TNFRSF10A log2FC: -0.907
Gene 8805
  TRIM24 log2FC: 0.826
Gene 8829
  NRP1 log2FC: -0.252
Gene 8831
  SYNGAP1 log2FC: -0.399
Gene 8835
  SOCS2 log2FC: 0.381
Gene 8837
  CFLAR log2FC: -0.542
Gene 8841
  HDAC3 log2FC: -0.248
Gene 8846
  ALKBH1 log2FC: -0.111
Gene 8848
  TSC22D1 log2FC: 0.388
Gene 8851
  CDK5R1 log2FC: -0.328
Gene 8854
  ALDH1A2 log2FC: 0.042
Gene 8870
  IER3 log2FC: -2.265
Gene 8874
  ARHGEF7 log2FC: 0.044
Gene 8877
  SPHK1 log2FC: -0.416
Gene 8878
  SQSTM1 log2FC: 0.782
Gene 8879
  SGPL1 log2FC: -0.0047
Gene 8887
  TAX1BP1 log2FC: 1.267
Gene 8915
  BCL10 log2FC: 0.116
Gene 8930
  MBD4 log2FC: 0.294
Gene 8996
  NOL3 log2FC: 0.486
